We go through three compounds from ChEMBL document CHEMBL1155583, “Steroidal saponins from Dracaena surculosa” (J Nat Prod, 2000).

Values after ≈ are worked out from the molar mass of the structure shown.

In the test the test system is HL-60. The test is described as follows: Cytotoxicity against human HL60 cells by MTT assay. Format: functional, cell-based. Background: Tetrazolium dyes change colour on reduction, which living cells bring about.

On to `C[C@@H]1CC[C@@]2(OC1)O[C@H]1C[C@H]3[C@@H]4CC=C5C[C@@H](O[C@@H]6O[C@H](CO)[C@@H](O[C@@H]7O[C@@H](C)[C@H](O)[C@@H](O)[C@H]7O)[C@H](O)[C@H]6O[C@@H]6O[C@@H](C)[C@H](O)[C@@H](O)[C@H]6O)CC[C@]5(C)[C@H]4CC[C@]3(C)[C@@]1(O)[C@@H]2C`, for which the IC50 (in general, the concentration that inhibits the measured activity by half) came to 4.2 µg/mL (≈ 4.75 µM). As to `C[C@H]1CC[C@@]2(OC1)O[C@H]1C[C@H]3[C@@H]4CC=C5C[C@@H](O)C[C@@H](O[C@@H]6O[C@H](C)[C@H](O)[C@H](O)[C@H]6O[C@@H]6O[C@@H](C)[C@H](O)[C@@H](O)[C@H]6O)[C@]5(C)[C@H]4CC[C@]3(C)[C@H]1[C@@H]2C`, the IC50 was found to be 8.7 µg/mL (≈ 12 µM). For the compound `C[C@@H]1CC[C@@]2(OC1)O[C@H]1C[C@H]3[C@@H]4CC=C5C[C@@H](O[C@@H]6O[C@H](CO)[C@@H](O)[C@H](O)[C@H]6O[C@@H]6O[C@@H](C)[C@H](O)[C@@H](O)[C@H]6O)CC[C@]5(C)[C@H]4CC[C@]3(C)[C@@]1(O)[C@@H]2C`, half-maximal inhibition (IC50) was put at 5.2 µg/mL (≈ 7.04 µM).
